Experimental data: US8927717B1, “Thiochromeno[2,3-c]quinolin-12-one derivatives, preparation method and application thereof” (National Defense Medical Center, priority 2014, dated 2015)

Legend:
[1] = test system: HOP-62; assay type: cell-based; conditions: Non-small cell lung cancer; 10^−5 molar; 48 hours; SRB
[2] = test system: UACC-62; assay type: cell-based; conditions: Melanoma; 10^−5 molar; 48 hours; SRB
[3] = test system: HCC-2998; assay type: cell-based; conditions: Colon cancer; 10^−5 molar; 48 hours; SRB
[4] = test system: TK-10; assay type: cell-based; conditions: Renal cancer; 10^−5 molar; 48 hours; SRB
[5] = test system: MDA-MB-486; assay type: cell-based; conditions: Breast cancer; 10^−5 molar; 48 hours; SRB
[6] = test system: HL-60(TB); assay type: cell-based; conditions: Leukemia; 10^−5 molar; 48 hours; SRB
[7] = test system: IGROV1; assay type: cell-based; conditions: Ovarian cancer; 10^−5 molar; 48 hours; SRB
[8] = test system: SNB-19; assay type: cell-based; conditions: CNS cancer; 10^−5 molar; 48 hours; SRB
[9] = test system: HCT-15; assay type: cell-based; conditions: Colon cancer; 10^−5 molar; 48 hours; SRB
[10] = test system: SR; assay type: cell-based; conditions: Leukemia; 10^−5 molar; 48 hours; SRB
[11] = test system: CAKI-1; assay type: cell-based; conditions: Renal cancer; 10^−5 molar; 48 hours; SRB
[12] = test system: MDA-MB-231/ATCC; assay type: cell-based; conditions: Breast cancer; 10^−5 molar; 48 hours; SRB
[13] = test system: T-47D; assay type: cell-based; conditions: Breast cancer; 10^−5 molar; 48 hours; SRB
[14] = test system: 60 cancer cell lines; test: NCI 60-cell screen, SRB, whole panel (mean, delta, range); assay type: cell-based; conditions: 10^−5 molar, 48 hours, SRB
[15] = test system: OVCAR-3; assay type: cell-based; conditions: Ovarian cancer; 10^−5 molar; 48 hours; SRB
[16] = test system: LOX IMVI; assay type: cell-based; conditions: Melanoma; 10^−5 molar; 48 hours; SRB
[17] = test system: SK-OV-3; assay type: cell-based; conditions: Ovarian cancer; 10^−5 molar; 48 hours; SRB
[18] = test system: OVCAR-8; assay type: cell-based; conditions: Ovarian cancer; 10^−5 molar; 48 hours; SRB
[19] = test system: RPMI-8226; assay type: cell-based; conditions: Leukemia; 10^−5 molar; 48 hours; SRB
[20] = test system: SF-268; assay type: cell-based; conditions: CNS cancer; 10^−5 molar; 48 hours; SRB
[21] = test system: CCRF-CEM; assay type: cell-based; conditions: Leukemia; 10^−5 molar; 48 hours; SRB
[22] = test system: NCI-H23; assay type: cell-based; conditions: Non-small cell lung cancer; 10^−5 molar; 48 hours; SRB
[23] = test system: KM12; test: cells; assay type: cell-based; conditions: Colon cancer; 10^−5 molar; 48 hours; SRB
[24] = test system: NCI-H460; assay type: cell-based; conditions: Non-small cell lung cancer; 10^−5 molar; 48 hours; SRB
[25] = test system: SF-295; assay type: cell-based; conditions: CNS cancer; 10^−5 molar; 48 hours; SRB
[26] = test system: K-562; assay type: cell-based; conditions: Leukemia; 10^−5 molar; 48 hours; SRB
[27] = test system: SF-539; assay type: cell-based; conditions: CNS cancer; 10^−5 molar; 48 hours; SRB
[28] = test system: U251; assay type: cell-based; conditions: CNS cancer; 10^−5 molar; 48 hours; SRB
[29] = test system: SW-620; assay type: cell-based; conditions: Colon cancer; 10^−5 molar; 48 hours; SRB
[30] = test system: HCT-116; assay type: cell-based; conditions: Colon cancer; 10^−5 molar; 48 hours; SRB
[31] = test system: HT29; assay type: cell-based; conditions: Colon cancer; 10^−5 molar; 48 hours; SRB
[32] = test system: MCF7; assay type: cell-based; conditions: Breast cancer; 10^−5 molar; 48 hours; SRB
[33] = test system: NCI-H522; assay type: cell-based; conditions: Non-small cell lung cancer; 10^−5 molar; 48 hours; SRB
[34] = test system: NCI/ADR-RES; assay type: cell-based; conditions: Ovarian cancer; 10^−5 molar; 48 hours; SRB
[35] = test system: ACHN; assay type: cell-based; conditions: Renal cancer; 10^−5 molar; 48 hours; SRB
[36] = test system: COLO 205; assay type: cell-based; conditions: Colon cancer; 10^−5 molar; 48 hours; SRB
[37] = test system: SK-MEL-28; assay type: cell-based; conditions: Melanoma; 10^−5 molar; 48 hours; SRB
[38] = test system: SK-MEL-2; assay type: cell-based; conditions: Melanoma; 10^−5 molar; 48 hours; SRB
[39] = test system: SN12C; assay type: cell-based; conditions: Renal cancer; 10^−5 molar; 48 hours; SRB
[40] = test system: OVCAR-4; assay type: cell-based; conditions: Ovarian cancer; 10^−5 molar; 48 hours; SRB
[41] = test system: BT-549; assay type: cell-based; conditions: Breast cancer; 10^−5 molar; 48 hours; SRB
[42] = test system: 786-0; assay type: cell-based; conditions: Renal cancer; 10^−5 molar; 48 hours; SRB
[43] = test system: MALME-3M; assay type: cell-based; conditions: Melanoma; 10^−5 molar; 48 hours; SRB
[44] = test system: RXF 393; assay type: cell-based; conditions: Renal cancer; 10^−5 molar; 48 hours; SRB
[45] = test system: MDA-MB-435; assay type: cell-based; conditions: Melanoma; 10^−5 molar; 48 hours; SRB
[46] = test system: OVCAR-5; assay type: cell-based; conditions: Ovarian cancer; 10^−5 molar; 48 hours; SRB
[47] = test system: A549/ATCC; assay type: cell-based; conditions: Non-small cell lung cancer; 10^−5 molar; 48 hours; SRB
[48] = test system: HS 578T; assay type: cell-based; conditions: Breast cancer; 10^−5 molar; 48 hours; SRB
[49] = test system: HOP-92; assay type: cell-based; conditions: Non-small cell lung cancer; 10^−5 molar; 48 hours; SRB
[50] = test system: DU-145; assay type: cell-based; conditions: Prostate cancer; 10^−5 molar; 48 hours; SRB
[51] = test system: NCI-H226; assay type: cell-based; conditions: Non-small cell lung cancer; 10^−5 molar; 48 hours; SRB
[52] = test system: UO-31; assay type: cell-based; conditions: Renal cancer; 10^−5 molar; 48 hours; SRB
[53] = test system: PC-3; assay type: cell-based; conditions: Prostate cancer; 10^−5 molar; 48 hours; SRB
[54] = test system: SNB-75; assay type: cell-based; conditions: CNS cancer; 10^−5 molar; 48 hours; SRB
[55] = test system: MOLT-4; assay type: cell-based; conditions: Leukemia; 10^−5 molar; 48 hours; SRB
[56] = test system: UACC-257; assay type: cell-based; conditions: Melanoma; 10^−5 molar; 48 hours; SRB
[57] = test system: SK-MEL-5; assay type: cell-based; conditions: Melanoma; 10^−5 molar; 48 hours; SRB
[58] = test system: A498; assay type: cell-based; conditions: Renal cancer; 10^−5 molar; 48 hours; SRB
[59] = test system: M14; assay type: cell-based; conditions: Melanoma; 10^−5 molar; 48 hours; SRB

## O=c1c2cc(Cl)ccc2sc2c(N3CCN(Cc4ccccc4)CC3)nc3ccccc3c12 [Compound 11, 6-(4-Benzylpiperazin-1-yl)-10-chloro-12H-thiochromeno[2,3-c]quinolin-12-one]
[1]
  Growth percent HOP-62: 87.72%
[2]
  Growth percent UACC-62: 96.00%
[3]
  Growth percent HCC-2998: 99.32%
[4]
  Growth percent TK-10: 124.99%
[5]
  Growth percent MDA-MB-486: 98.53%
[6]
  Growth percent HL-60(TB): 100.96%
[7]
  Growth percent IGROV1: 93.49%
[8]
  Growth percent SNB-19: 95.52%
[9]
  Growth percent HCT-15: 94.51%
[10]
  Growth percent SR: 85.15%
[11]
  Growth percent CAKI-1: 94.03%
[12]
  Growth percent MDA-MB-231/ATCC: 89.11%
[13]
  Growth percent T-47D: 89.22%
[14]; delta over the cell panel
  Growth percent, Delta: 31.28%
[14]; mean over the cell panel
  Growth percent, Mean: 96.19%
[14]; range over the cell panel
  Growth percent, Range: 60.08%
[15]
  Growth percent OVCAR-3: 101.69%
[16]
  Growth percent LOX IMVI: 94.22%
[17]
  Growth percent SK-OV-3: 94.79%
[18]
  Growth percent OVCAR-8: 98.54%
[19]
  Growth percent RPMI-8226: 96.63%
other
  melting point: 191 to 193 °C
[20]
  Growth percent SF-268: 100.42%
[21]
  Growth percent CCRF-CEM: 95.42%
[22]
  Growth percent NCI-H23: 89.94%
[23]
  Growth percent KM12: 107.75%
[24]
  Growth percent NCI-H460: 95.57%
[25]
  Growth percent SF-295: 94.34%
[26]
  Growth percent K-562: 87.84%
[27]
  Growth percent SF-539: 108.56%
[28]
  Growth percent U251: 96.69%
[29]
  Growth percent SW-620: 93.08%
[30]
  Growth percent HCT-116: 98.59%
[31]
  Growth percent HT29: 102.71%
[32]
  Growth percent MCF7 (Table 2: MCF): 68.32%
[33]
  Growth percent NCI-H522: 96.69%
[34]
  Growth percent NCI/ADR-RES: 98.31%
[35]
  Growth percent ACHN: 96.39%
[36]
  Growth percent COLO 205: 105.64%
[37]
  Growth percent SK-MEL-28: 104.19%
[38]
  Growth percent SK-MEL-2: 107.37%
[39]
  Growth percent SN12C: 97.70%
[40]
  Growth percent OVCAR-4: 102.43%
[41]
  Growth percent BT-549: 114.05%
[42]
  Growth percent 786-0: 105.57%
[43]
  Growth percent MALME-3M: 112.36%
[44]
  Growth percent RXF 393: 100.71%
[45]
  Growth percent MDA-MB-435: 96.99%
[46]
  Growth percent OVCAR-5: 111.92%
[47]
  Growth percent A549/ATCC: 106.37%
[48]
  Growth percent HS 578T: 76.42%
[49]
  Growth percent HOP-92: 70.17%
[50]
  Growth percent DU-145: 111.61%
[51]
  Growth percent NCI-H226: 88.98%
[52]
  Growth percent UO-31: 64.91%
[53]
  Growth percent PC-3: 89.12%
[54]
  Growth percent SNB-75: 82.62%
[55]
  Growth percent MOLT-4: 90.91%
[56]
  Growth percent UACC-257: 95.39%
[57]
  Growth percent SK-MEL-5: 98.38%
[58]
  Growth percent A498: 94.17%
[59]
  Growth percent M14: 93.00%
